Among the data in US20240199571A1, “THIOPHENE COMPOUND AND APPLICATION THEREOF” (MEDSHINE DISCOVERY INC., priority 2021, published 2024) are IC50 values, retold here.

One assay deals with NCI-H1417 cells. Description: Experiment 2: inhibition of NCI-H1417 cell proliferation (CellTiter-Glo, 10 days). The assay is classed as cell-based. Conditions: Homo sapiens, 240 h, 10 days incubation. On the procedure: Experiment 2: Evaluation of Inhibitory Activity on NCI-H1417 Cell Proliferation
Experimental purpose: To test the inhibitory activity of test compounds on NCI-H1417 cell proliferation.
Experimental materials: RPMI 1640 medium, fetal bovine serum, Promega CellTiter-Glo reagent. The NCI-H1417 cell line was purchased from ATCC. Envision multilabel plate reader (PerkinElmer).
Experimental method: The compounds were dissolved to 10 mM and 5-fold diluted with DMSO in the compound plates, starting with a concentration of 2 mM. 3-fold serial dilution was performed with Bravo to 10 concentrations. Then 250 nL of the compound solution was transferred to the upper and lower double duplicate wells of a blank 384 cell plate with Echo. To each well containing the transferred 250 nL of DMSO/compound was added a cell suspension of 1000 cells/50 μL per well, and the compound was diluted 200-fold, i.e., resulting in an initial working concentration of 10 μM. The cell plate was incubated in a carbon dioxide incubator for 10 days. To the cell plate was added 25 μL of Promega CellTiter-Glo reagent per well and the mixture was shaken for 10 minutes at room temperature to stabilize the luminescence signal. Readings were performed on a PerkinElmer Envision multilabel plate reader.
Data analysis: Raw data were converted into inhibition rate using the formula: (Max−Ratio)/(Max−Min)*100%. The IC50 values could then be derived from four-parameter curve fitting. (derived from 205 mode in XLFIT5, iDBS)
The compounds were tested for inhibitory activity of compounds on NCI-H1417 cell proliferation, and the results are shown in Table 3.
In general terms: ATP-based viability assays read luminescence as a measure of living cells.

Another assay deals with human LSD1 (Homo sapiens (Human), UniProt O60341). Description: Experiment 1B: in vitro LSD1 enzyme activity, enzyme-coupled fluorescence (HRP/Amplex Red), H3(1-21)K4me2 peptide 10 μM (Reaction Biology). The assay is classed as biochemical. To be noted: histone H3(1-21)K4me2 peptide 10 μM. On the procedure:
Experiment 1B: Evaluation of Enzyme Activity
Testing unit: Reaction Biology Corp., USA.
The purpose of the assay was to test the in vitro inhibitory activity of the compounds against LSD1. The enzyme used in the assay was human LSD1, and the standard substrate was histone H3(1-21)K4me2 peptide (10 μM). The activity of the compounds was determined by the enzyme-coupling fluorescent method by the combined detection of H2O2 generated after the reaction of LSD1 by horseradish peroxidase (HRP) and the fluorescent reagent Amplex Red. Starting from 10 μM, the compounds were 3-fold diluted to detect the IC50 values of the compounds at 10 concentrations. The enzyme and substrate were incubated for 30 minutes before the compound was added to the substrate to start the reaction. Fluorescence detector: EnVision, excitation wavelength: Ex/Em=535/590 nM.

Where a name gives a salt, the structure may show the parent alone.

As to `CN[C@@H]1CCCN(C(=O)c2cc(-c3ccc(C#N)c(F)c3)c(-c3ccc(N4CC[C@@H](O)C4)cc3)s2)C1` [Hydrochloride of compound 109], the half-inhibitory concentration (IC50) in the assay on NCI-H1417 cells was found to be 2.03 nM; against human LSD1, 10.7 nM. As for `N#Cc1ccc(-c2cc(C(=O)N3CCC[C@@H](N)C3)sc2-c2cc3cn(CC4(O)CC4)nc3cc2F)cc1F` [Hydrochloride of compound 93], the IC50 with NCI-H1417 cells is 4.11 nM; against human LSD1, 18 nM.

Turning to `N#Cc1ccc(-c2cc(C(=O)N3CCC[C@@H](N)C3)sc2-c2ccc(N3CC[C@@H](O)C3)cc2F)cc1F` [Hydrochloride of compound 112], the 50% inhibitory concentration (IC50) amounted to 4.99 nM with NCI-H1417 cells and 5.84 nM against human LSD1.

As for `N#Cc1ccc(-c2cc(C(=O)N3CCC[C@@H](N)C3)sc2-c2ccc3[nH]c(=O)oc3c2)cc1F` [Hydrochloride of compound 31], the half-maximal inhibitory concentration (IC50) with NCI-H1417 cells was found to be 11.3 nM; at human LSD1, 26.7 nM.

On to `N#Cc1ccc(-c2cc(C(=O)N3CCC[C@@H](N)C3)sc2-c2cc3nnn([C@H]4COCC[C@@H]4O)c3c(F)c2F)cc1F` [Hydrochloride of compound 97], for which the IC50 is 9.6 nM in the assay on NCI-H1417 cells and 25.3 nM against human LSD1.

On to `CS(=O)(=O)c1ccc(-c2sc(C(=O)N3CCC[C@@H](N)C3)cc2-c2ccc(C#N)c(F)c2)cc1` [Hydrochloride of compound 44], for which the 50% inhibitory concentration (IC50) in the assay with NCI-H1417 cells turned out to be 8.87 nM; at human LSD1, 70.6 nM. For the compound `CC(C)(O)CNc1ccc(-c2sc(C(=O)N3CCC[C@@H](N)C3)cc2-c2ccc(C#N)c(F)c2)cc1F` [Hydrochloride of compound 119], the half-maximal inhibitory concentration (IC50) in the assay with NCI-H1417 cells came out at 9.17 nM; on human LSD1 it was 17.7 nM. At human LSD1, `N#Cc1ccc(-c2cc(C(=O)N3CCC[C@@H](N)C3)sc2-c2ccc(N)nc2)cc1F` [Hydrochloride of compound 49] had an IC50 of 101 nM. This counts as sub-micromolar. As for `N#Cc1ccc(-c2cc(C(=O)N3CCC[C@@H](N)C3)sc2-c2ccnc(N)c2)cc1F` [Hydrochloride of compound 33], the IC50 with NCI-H1417 cells was determined as 16.2 nM; on human LSD1, 38 nM. The matching figures for `COc1ccc(-c2sc(C(=O)N3CC[C@@H](F)[C@@H](N)C3)cc2-c2ccc(C#N)c(F)c2)cc1F` [Hydrochloride of compound 20]: 32.3 nM and 19.4 nM. In the same order, the values of `N#Cc1ccc(-c2cc(C(=O)N3CCC[C@@H](N)C3)sc2-c2ccc(N3CC[C@@H](O)C3)c(F)c2)cc1F` [Hydrochloride of compound 101] are 3.35 nM and 28.7 nM.

`N#Cc1ccc(-c2cc(C(=O)N3CCC[C@@H](N)C3)sc2-c2cc3cn(CC4(O)CCC4)nc3cc2F)cc1F` [Hydrochloride of compound 95]: the figures for the half-inhibitory concentration (IC50) with NCI-H1417 cells and on human LSD1 were 2.51 nM and 10.1 nM, respectively. The matching figures for `Cn1nc2ccc(-c3sc(C(=O)N4CCC[C@@H](N)C4)cc3-c3ccc(C#N)c(F)c3)cc2c1F` [Hydrochloride of compound 123]: 6.25 nM and 26.7 nM.

In the case of `CN[C@@H]1CCCN(C(=O)c2cc(-c3ccc(C#N)c(F)c3)c(-c3ccc(N4CC(C)(O)C4)cc3)s2)C1` [Compound 122], the figures for the half-inhibitory concentration (IC50) in the assay with NCI-H1417 cells and on human LSD1 were 9.83 nM and 13.1 nM, respectively. The matching figures for `CC1(O)CN(c2ccc(-c3sc(C(=O)N4CCC[C@@H](N)C4)cc3-c3ccc(C#N)c(F)c3)cc2)C1` [Hydrochloride of compound 118]: 31.6 nM and 13.8 nM.

Consider `N#Cc1ccc(-c2cc(C(=O)N3CCC[C@@H](N)C3)sc2-c2ccc(N3CC[C@H](O)C3)cc2)cc1F` [Hydrochloride of compound 107], for which the IC50 with NCI-H1417 cells was determined as 3.31 nM; on human LSD1, 15.1 nM.

For `N#Cc1ccc(-c2cc(C(=O)N3CCC[C@@H](N)C3)sc2-c2ccn3nccc3c2)cc1F` [Compound 75], the IC50 in the assay on NCI-H1417 cells stood at 28 nM; on human LSD1, 28.9 nM. In the same order, the values of `N#Cc1ccc(-c2cc(C(=O)N3CCC[C@@H](N)C3)sc2-c2ccc(NCC3(O)CCC3)c(F)c2)cc1F` [Hydrochloride of compound 120] are 17.5 nM and 9.4 nM. In turn, `Cc1c2cc(-c3sc(C(=O)N4CCC[C@@H](N)C4)cc3-c3ccc(C#N)c(F)c3)ccc2nn1C` [Hydrochloride of compound 71] had a concentration for half-maximal inhibition (IC50) in the assay with NCI-H1417 cells of 0.64 nM. On the same count and under the same terms, the result for `CN[C@@H]1CCCN(C(=O)c2cc(-c3ccc(C#N)c(F)c3)c(-c3ccc(N4CC[C@@H](O)C4)cc3F)s2)C1` [Hydrochloride of compound 113] reads 3.98 nM.

The compound `Cn1cc(-c2sc(C(=O)N3CCC[C@@H](N)C3)cc2-c2ccc(C#N)c(F)c2)cn1` [Hydrochloride of compound 52] displayed a 50% inhibitory concentration (IC50) on human LSD1 of 251 nM. This lies in the sub-micromolar range. In the assay on NCI-H1417 cells, `N#Cc1ccc(-c2cc(C(=O)N3CCC[C@@H](N)C3)sc2-c2ccc3n[nH]cc3c2)cc1F` [Hydrochloride of compound 63] returned a half-inhibitory concentration (IC50) of 28.6 nM. Consider `COc1ccc(-c2sc(C(=O)N[C@@H]3CCNC3)cc2-c2ccc(C#N)c(F)c2)cc1F` [Hydrochloride of compound 27], for which the half-inhibitory concentration (IC50) on human LSD1 amounted to 48.2 nM. This counts as double-digit nanomolar. Still for that read-out and setting: the result for `COc1ccc(-c2sc(C(=O)N3CCCNCC3C)cc2-c2ccc(C#N)c(F)c2)cc1F` (centres unmarked) [Hydrochloride of compound 25] reads 63.9 nM. For the compound `Cn1cc2ccc(-c3sc(C(=O)N4CCC[C@@H](N)C4)cc3-c3ccc(C#N)c(F)c3)cc2n1` [Hydrochloride of compound 65], in the assay on NCI-H1417 cells, the midpoint of inhibition, the IC50, lay at 11.1 nM. On the same count and under the same terms, next, `CN[C@@H]1CCCN(C(=O)c2cc(-c3ccc(C#N)c(F)c3)c(-c3ccc(N4CC[C@H](O)C4)cc3)s2)C1` [Hydrochloride of compound 108]: 2.11 nM.

The compound `N#Cc1ccc(-c2cc(C(=O)N3CCC[C@@H](N)C3)sc2-c2ccc3ncncc3c2)cc1F` [Hydrochloride of compound 66] came in with an IC50 on human LSD1 of 73.4 nM. In other words, the double-digit nanomolar range.

On to `COc1ccc(-c2sc(C(=O)N3CCC4(CC3)COCC4N)cc2-c2ccc(C#N)c(F)c2)cc1F` (centres unmarked) [Hydrochloride of compound 23], for which the IC50 against human LSD1 stood at 76.8 nM. At human LSD1, `N#Cc1ccc(-c2cc(C(=O)N3CCC[C@@H](N)C3)sc2-c2ccn3cncc3c2)cc1F` [Compound 78] gave an IC50 of 47.4 nM.

With `CN[C@@H]1CCCN(C(=O)c2cc(-c3ccc(C#N)c(F)c3)c(-c3ccc(N4CC[C@H](O)C4)cc3F)s2)C1` [Hydrochloride of compound 115], the IC50 with NCI-H1417 cells is 1.94 nM.

For the compound `N#Cc1ccc(-c2cc(C(=O)N3CCC[C@@H](N)C3)sc2-c2ccc(N3CC[C@H](O)C3)cc2F)cc1F` [Hydrochloride of compound 114], in the assay with NCI-H1417 cells, the midpoint of inhibition, the IC50, lay at 5.18 nM. With `N#Cc1ccc(-c2cc(C(=O)N3CCCNCC3)sc2-c2ccc(N3CC[C@H](O)C3)cc2)cc1F` [Hydrochloride of compound 116], 9.27 nM corresponded to half-maximal inhibition on human LSD1 (IC50). This lies in the single-digit nanomolar range. Regarding `CN(C)[C@@H]1CCCN(C(=O)c2cc(-c3ccc(C#N)c(F)c3)c(-c3ccc4nn(C(C)(C)CO)cc4c3)s2)C1` [Hydrochloride of compound 105], it took 6.14 nM to reach half-maximal inhibition with NCI-H1417 cells (IC50). At human LSD1, `COc1ccc(-c2sc(C(=O)N3CC[C@H](F)[C@@H](N)C3)cc2-c2ccc(C#N)c(F)c2)cc1F` [Hydrochloride of compound 19] had a concentration for half-maximal inhibition (IC50) of 64.8 nM. `N#Cc1ccc(-c2cc(C(=O)N3CCC[C@@H](N)C3)sc2-c2ccc3nccn3c2)cc1F` [Compound 74] came in with an IC50 at human LSD1 of 33.2 nM. This IC50 is about 2-fold lower than that of the compound before. In turn, `CN(C)[C@@H]1CCCN(C(=O)c2cc(-c3ccc(C#N)c(F)c3)c(-c3cc4nnn(CC(C)(C)O)c4c(F)c3F)s2)C1` [Hydrochloride of compound 106] came in with a half-inhibitory concentration (IC50) in the assay with NCI-H1417 cells of 0.19 nM.

What is called IC50 is the point on the concentration scale where inhibition reaches its midpoint.
